Results as given in patent publication US7307095B2, “Inhibitors of cathepsin S” (IRM LLC, priority 2003, dated 2007).

target: Cathepsin S (Homo sapiens, UniProt P25774); assay: Cathepsin S inhibition, fluorogenic peptide substrate kinetic assay; type: biochemical; settings: Cathepsin S inhibition constant; read-out: Ki Cat. S
Protocol: The optimal substrate for cathepsin S, acetyl-histidine-proline-valine-lysine-amino carbamoyl coumarin, was identified from screening a combinatorial library of fluorogenic peptide substrates (Harris, J. L., B. J. Backes, et al. Proc Natl Acad Sci USA 2000, 97(14), 7754-9). Kinetic measurements are performed in a total reaction volume of 30 μl in 384-well microtiter plates. […] Control reactions in the absence of inhibitor are performed in replicates of 24. The reactions are initiated by adding the substrate, acetyl-histidine-proline-valine-lysine-amino carbamoyl coumarin, to a final concentration of 50 μM. The rate of substrate hydrolysis is measured by monitoring the increase in fluorescence at an excitation wavelength of 380 nm and an emission wavelength of 450 nm that results from cleavage of the aniline bond in the substrate by the enzyme. The apparent inhibition constants for the compounds are determined from the enzyme progress curves (Kuzmic, P., K. C. Elrod, et al. Anal Biochem 2000, 286(1), 45-50) and are then used to calculate the inhibition constants for competitive inhibitors.

Sequence of Cathepsin S (P25774 115-331, species assumed): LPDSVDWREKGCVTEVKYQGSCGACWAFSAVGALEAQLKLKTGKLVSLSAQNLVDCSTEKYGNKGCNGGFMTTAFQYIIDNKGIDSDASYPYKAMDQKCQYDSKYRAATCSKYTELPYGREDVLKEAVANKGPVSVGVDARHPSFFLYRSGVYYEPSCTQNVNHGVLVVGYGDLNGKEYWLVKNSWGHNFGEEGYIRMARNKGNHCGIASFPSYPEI

SMILES	Ki [nM]
Cc1cc(NC[C@H](C)NC(=O)[C@H](CC2CCCCC2)Nc2nc3cccc(Cl)c3o2)no1 [Example 25, 2-(S)-(7-Chloro-benzooxazol-2-ylamino)-3-cyclohexyl-N-[1-(S)-methyl-2-(5-methyl-isoxazol-3-ylamino)-ethyl]-propionamide]	< 10000
C[C@@H](CN1CCc2cc(F)ccc21)NC(=O)[C@H](CC1CCCCC1)Nc1nc2ccc(Cl)cc2s1 [Example 34, 2-(S)-(6-Chloro-benzothiazol-2-ylamino)-3-cyclohexyl-N-[2-(5-fluoro-2,3-dihydro-indol-1-yl)-1-(S)-methyl-ethyl]-propionamide]	< 100
C[C@@H](CNc1ccc(OC(F)(F)F)cc1)NC(=O)[C@H](CC1CCCC1)Nc1nc2cccc(Cl)c2o1 [Example 39, 2-(S)-(7-Chloro-benzooxazol-2-ylamino)-3-cyclopentyl-N-[1-(S)-methyl-2-(4-trifluoromethoxy-phenylamino)-ethyl]-propionamide]	< 100
C[C@@H](CNc1ccc(OC(F)(F)F)cc1)NC(=O)[C@H](CC(C)(C)C)Nc1nc2cccc(Cl)c2o1 [Example 41, 2-(S)-(7-Chloro-benzooxazol-2-ylamino)-4,4-dimethyl-pentanoic acid [1-(S)-methyl-2-(4-trifluoromethoxy-phenylamino)-ethyl]-amide]	< 100
C[C@@H](CNc1ccc(OC(F)(F)F)cc1)NC(=O)[C@H](CC1CC1)Nc1nc2cccc(Cl)c2o1 [Example 43, 2-(S)-(7-Chloro-benzooxazol-2-ylamino)-3-cyclopropyl-N-[1-(S)-methyl-2-(4-trifluoromethoxy-phenylamino)-ethyl]-propionamide]	< 100

Continued, values first:

Ki [nM]	SMILES
< 100	COC(=O)c1ccc2nc(N[C@@H](CC3CCCCC3)C(=O)N[C@@H](C)CNc3ccc(F)cc3)oc2c1 [Example 24, (S,S)2-{2-Cyclohexyl-1-[2-(4-fluoro-phenylamino)-1-methyl-ethylcarbamoyl]-ethylamino}-benzooxazole-6-carboxylic acid methyl ester]
< 100	O=C(O)C[C@@H](CN1CCc2cc(F)ccc21)NC(=O)[C@H](CC1CCCCC1)Nc1nc2ccc(Cl)cc2s1 [Example 29, 3-(S)-[2-(S)-(6-Chloro-benzothiazol-2-ylamino)-3-cyclohexyl-propionylamino]-4-(5-fluoro-2,3-dihydro-indol-1-yl)-butyric acid]
